Data as given in ChEMBL document CHEMBL1201862, “PubChem BioAssay data set” (2004).
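Growth conditions: 96-well plates. Treatment: test compound, 48 hours, 5 concentrations. Analysis: linear interpolation between bracketing concentrations; unreached endpoints set to highest concentration. Abbreviation: GI50, concentration required for 50% inhibition of growth.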 Activity calls are given as the source filed them. No stated cut-off is given here; in the data, active = GI50 up to about 1.1 µM and inactive = higher.

What was measured:
Test in all cases: inhibition of tumour cell growth, NCI panel, 48 h
A549 = system: A549
NCI-H460 = system: NCI-H460
SNB-19 = system: SNB-19
HL-60 = system: HL-60
SF-295 = system: SF-295
CCRF-CEM = system: CCRF-CEM
NCI-H23 = system: NCI-H23
U-251 = system: U-251
SF-268 = system: SF-268
OVCAR-3 = system: OVCAR-3
SK-MEL-28 = system: SK-MEL-28
HT-29 = system: HT-29
K562 = system: K562
SW-620 = system: SW-620
OVCAR-8 = system: OVCAR-8
MOLT-4 = system: MOLT-4
KM12 = system: KM12
SK-MEL-5 = system: SK-MEL-5
SN12C = system: SN12C
SNB-75 = system: SNB-75

Measured: GI50

CCOC(O)C(F)(F)F (stereo not given)
inactive: A549 > 100 µM | NCI-H460 > 100 µM | SNB-19 > 100 µM | HL-60 > 100 µM | SF-295 > 100 µM | CCRF-CEM > 100 µM | NCI-H23 > 100 µM | U-251 > 100 µM | SF-268 > 100 µM | OVCAR-3 > 100 µM | SK-MEL-28 > 100 µM | HT-29 > 100 µM | K562 > 100 µM | SW-620 > 100 µM | OVCAR-8 > 100 µM | MOLT-4 > 100 µM | KM12 > 100 µM | SK-MEL-5 > 100 µM | SN12C > 100 µM | SNB-75 > 100 µM
